Results reported in patent US11751586B2, “Compositions and methods for improving taste of non-nutritive sweeteners” (PEPSICO, INC., priority 2016, dated 2023).
Entries after “also recorded” stand apart in the source; their conditions may differ. Each block holds one compound with its values, some of them ahead of it.

Columns and labels:
[1] = target: T1, sweet taste receptors T1R2/T1R3 (Homo sapiens, UniProt Q7RTX0+Q8TE23); experiment: Taste receptor internalization assay (Ring Assay), sweet; format: cell-based; details: for EC50 value, sweet receptor dose response: combined with the stevia blend 4, Example 15; for slope of the dose response curve: with the stevia 4 blend, individual compound vs the combination of compounds 1 and 10, FIGS. 51, 52, 55
T1 construct: receptor internalization assay (“Ring Assay”) on an H716 cell line; endogenous in cells; host or cells: H716 cell line
T1 sequence (Q8TE23 20-839): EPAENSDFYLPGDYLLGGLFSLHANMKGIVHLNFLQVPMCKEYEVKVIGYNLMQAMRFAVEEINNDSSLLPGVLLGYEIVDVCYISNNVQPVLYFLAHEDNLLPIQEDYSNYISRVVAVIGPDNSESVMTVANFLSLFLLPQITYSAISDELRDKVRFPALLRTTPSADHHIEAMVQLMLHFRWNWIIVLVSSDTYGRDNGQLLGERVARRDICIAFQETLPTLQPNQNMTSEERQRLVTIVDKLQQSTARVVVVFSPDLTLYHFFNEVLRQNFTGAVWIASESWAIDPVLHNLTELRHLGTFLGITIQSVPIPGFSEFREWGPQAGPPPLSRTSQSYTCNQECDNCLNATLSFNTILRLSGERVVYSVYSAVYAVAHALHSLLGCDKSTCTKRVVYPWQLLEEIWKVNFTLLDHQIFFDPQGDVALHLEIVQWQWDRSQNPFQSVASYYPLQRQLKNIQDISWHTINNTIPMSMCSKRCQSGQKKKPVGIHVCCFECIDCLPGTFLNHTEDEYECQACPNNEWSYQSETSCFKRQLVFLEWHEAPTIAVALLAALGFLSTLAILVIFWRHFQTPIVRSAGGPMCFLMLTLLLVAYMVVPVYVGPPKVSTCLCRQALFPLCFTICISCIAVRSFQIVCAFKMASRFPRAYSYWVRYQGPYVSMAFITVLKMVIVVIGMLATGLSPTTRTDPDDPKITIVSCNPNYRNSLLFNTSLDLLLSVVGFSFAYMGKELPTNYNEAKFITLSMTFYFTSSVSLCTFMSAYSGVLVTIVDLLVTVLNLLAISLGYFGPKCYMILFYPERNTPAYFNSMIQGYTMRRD
T1 sequence (Q7RTX0 21-852): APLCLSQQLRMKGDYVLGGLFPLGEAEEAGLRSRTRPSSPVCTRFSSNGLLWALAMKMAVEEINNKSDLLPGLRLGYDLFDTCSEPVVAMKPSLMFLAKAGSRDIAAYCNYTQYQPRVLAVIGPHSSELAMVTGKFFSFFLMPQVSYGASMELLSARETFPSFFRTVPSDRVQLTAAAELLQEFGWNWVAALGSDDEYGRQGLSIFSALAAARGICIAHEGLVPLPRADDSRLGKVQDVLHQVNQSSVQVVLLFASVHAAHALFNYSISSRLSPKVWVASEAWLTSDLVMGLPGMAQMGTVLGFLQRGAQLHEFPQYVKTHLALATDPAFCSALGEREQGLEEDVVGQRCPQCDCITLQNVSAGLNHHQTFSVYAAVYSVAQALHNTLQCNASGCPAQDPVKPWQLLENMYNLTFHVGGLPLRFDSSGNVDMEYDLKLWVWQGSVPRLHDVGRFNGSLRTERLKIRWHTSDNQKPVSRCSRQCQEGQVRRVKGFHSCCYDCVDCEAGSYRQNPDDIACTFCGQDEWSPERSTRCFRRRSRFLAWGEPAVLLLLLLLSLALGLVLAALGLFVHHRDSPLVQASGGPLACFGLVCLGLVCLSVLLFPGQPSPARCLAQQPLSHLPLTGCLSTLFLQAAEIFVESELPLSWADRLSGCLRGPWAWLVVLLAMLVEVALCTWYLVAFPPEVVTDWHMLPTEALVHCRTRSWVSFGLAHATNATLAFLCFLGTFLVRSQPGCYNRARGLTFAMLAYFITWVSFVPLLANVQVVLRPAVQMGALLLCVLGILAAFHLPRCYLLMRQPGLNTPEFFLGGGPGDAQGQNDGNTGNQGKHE
Method: (§1) The control samples and samples I-X were tested for their ability to activate sweet taste receptors T1R2/T1R3, GLUT4, and Glucagon and bitter taste receptors T2R using a taste receptor internalization assay. Receptor activation and internalization was measured using images acquired by an IMAGEXPRESS Micro automated epifluorescence microscope (Molecular Devices Corporation). The images were analyzed with METAXPRESS 5.1 Workstation software, utilizing the Multiwaves Translocation Scoring analysis algorithm for nuclear and cytoplasmic segmentation. Curve fitting and parameter estimation were then analyzed with TIBCO SPOTFIRE.
(§2) Taste Receptor Internalization General Procedure:
The two control samples and Samples I-X were each serially diluted eight times at a ratio of […] in water (1 part sample to 2 parts water) and dose response was determined by conducting a receptor internalization assay (“Ring Assay”) on an H716 cell line with an HCI platform using the methods disclosed in PCT Patent Application Publication No. WO 2014/183041. Receptor internalization was measured at 5 and 15 minutes. EC50 values and Maximum-Minimum (“Max-Min”) values were calculated using SPOTFIRE software. Sweet, aftertaste, glucagon, and bitterness scoring were calculated using analysis of variance (ANOVA). A median value was then calculated by dividing the Max-Min value by the EC50 value for all time points. The median values, which represent receptor activity, were then plotted on radar graphs, as shown in FIGS. 9A-9B, 10A-10B, 11A-11B, 12A-12B, 13, 14A-14B, 15A-15B, 16A-16B, 17A-17B, 18A-18B, and 19.
Several sets of aqueous samples were prepared to study the dose response for the sweet taste receptors. One set of samples was prepared by adding the stevia blend 4 (1.3 wt % rebaudioside D and 6.7 wt % SG95) to water and adding 0.32 wt % potassium sorbate. Malic acid was added to the solution until the pH was 3.5. Eleven sets of aqueous samples were prepared by separately combining the same stevia 4 blend with either 2-methylbutanol or one of the compounds listed in Table 4. Another set of samples was prepared by adding sugar to water. Four additional sets of aqueous samples were prepared by separately combining each of the stevia blend 4, above, and sugar with either compounds 1 and 10 or compounds 2, 6, and 10 from Table 4. One final set of aqueous samples was prepared by combining the stevia blend 4, above, with compounds 1, 2, 3, and 10 from Table 4. Each set of samples were serially diluted and had concentrations ranging from about 0.001 nM to about 100 μM.
The aqueous samples were tested at varying concentrations for their ability to activate the sweet taste receptors in accordance with the procedures described in Example 8. Dose response curves were generated for the stevia 4 blend, sugar, and each compound-stevia 4 blend combination.

[2] = tested on: Glucagon; experiment: Taste receptor internalization assay (Ring Assay), glucagon; format: cell-based; details: added to 8% stevia blend 3 base solution; compared to the sample with compound 2
Method: as §1, §2
(§3) The two control samples and Samples I-X were each serially diluted eight times at a ratio of 1:1 in water (1 part sample to 2 parts water) and dose response was determined by conducting a receptor internalization assay (“Ring Assay”) on an H716 cell line with an HCI platform using the methods disclosed in PCT Patent Application Publication No. WO 2014/183041. Receptor internalization was measured at 5 and 15 minutes. EC50 values and Maximum-Minimum (“Max-Min”) values were calculated using SPOTFIRE software. Sweet, aftertaste, glucagon, and bitterness scoring were calculated using analysis of variance (ANOVA). A median value was then calculated by dividing the Max-Min value by the EC50 value for all time points. […]

[3] = tested on: bitter taste receptors T2R; experiment: Taste receptor internalization assay (Ring Assay), bitter; format: cell-based
Method: as §1, §2, §3

[4] = tested on: sweet taste receptors T1R2/T1R3, GLUT4, and Glucagon and bitter taste receptors T2R; experiment: Taste receptor internalization assay, overall receptor response profile; format: cell-based; details: Sample X vs Sample IX; FIG. 10A
Method: as §1, §2, §3

[5] = compared with other steviol glycosides; cited from earlier work
[6] = compared with Rebaudioside A; cited from earlier work
[7] = added to 0.2% stevia blend 3 base solution, Example 11
[8] = added to 8 wt % stevia blend 3 base solution, Examples 10 and 11

EC50 value, sweet receptor dose response [1]: smaller
slope of the dose response curve [1]: smaller
SMILES: CCCC[C@@H]1OC(=O)C[C@H]1C (relative stereo) [Compound 10, Trans-4-Methyl-5-butyldihydro-2(3H)-furanone]

SMILES: CCC(C)CO (centres unmarked) [2-methylbutanol]
sweet receptor response [1, 7]: high sweet
sweetness (sweet receptor) response [1, 8]: low sweet; also recorded: significantly lower
glucagon receptor response [2]: significantly lower
bitterness receptor response [3, 7]: high sweet and bitterness
bitterness receptor response [3, 8]: no bitterness

SMILES: CCCCOC(C)=O [Compound 1, Butyl Acetate]
EC50 value, sweet receptor dose response [1]: smaller
slope of the dose response curve [1]: smaller

EC50 value, sweet receptor dose response [1]: low
taste modulator classification ([1]; for the stevia 4 blend, FIG. 57): sweet enhancer
effect on the taste profile of stevia [4]: sweet/glucagon enhancer
SMILES: CC(C)CCO [Compound 2, 3-Methylbutanol]

SMILES: C=C1C[C@@]23CC[C@H]4[C@@](C)(CCC[C@@]4(C)C(=O)O[C@@H]4O[C@H](CO)[C@@H](O)[C@H](O)[C@H]4O[C@@H]4O[C@H](CO)[C@@H](O)[C@H](O)[C@H]4O)[C@@H]2CC[C@]1(O[C@@H]1O[C@H](CO)[C@@H](O)[C@H](O[C@@H]2O[C@H](CO)[C@@H](O)[C@H](O)[C@H]2O)[C@H]1O[C@@H]1O[C@H](CO)[C@@H](O)[C@H](O)[C@H]1O)C3 [Rebaudioside D]
taste profile [5]: almost lacking the bitterness and lingering licorice aftertaste
water solubility [6]: less water soluble than Rebaudioside A
